Laboratory results taken from patent publication US20230391752A1, “PYRROLIDINE-3-CARBOXAMIDE DERIVATIVES AND RELATED USES” (Chulalongkorn University, priority 2020, published 2023).

System: HBV
Assay: In vitro anti-HBV activity in HepG2.2.15 cell line (intracellular HBV DNA by qPCR at 1 μM)
Format: cell-based
Details: Hepatitis B virus, 144 h; HepG2.2.15 cells, 1 μM compound, 6 days, intracellular HBV DNA as percentage compared to vehicle control (0.5% DMSO)
Experimental: The stable transfected HBV cell line, called HepG2.2.15 cells was a valuable model with high reproducibility and commonly used for drug screening. To identify the anti-HBV activity, HepG2.2.15 cells were seeded at 5×10^5 cells/well with high glucose Dulbecco's modified Eagle medium (DMEM) containing 10% heat inactivated fetal bovine serum (FBS), 300 mg/L G418, non-essential amino acids (NEAA) 100 units/ml Antibiotic-Antimycotic, and allowed to stand for an overnight in an incubator set at 37° C. and 5% C02. HepG2.2.15 cells in each well were treated with the medium containing a compound (1 μM with 0.5% dimethyl sulfoxide (DMSO final concentration) for three days in the incubator. After that the medium was removed and fresh medium containing the compound was added to the cells for another 3 days. After 6 days of treatment, intracellular HBV DNA was extracted and determined by using quantitative real-time PCR (qPCR) technique with specific primers. Intrahepatic HBV DNA viral load was reported as percentage compared to vehicle control (0.5% DMSO) as shown in Table A.
“B” means % ranging between 80 and 90; “C” means % ranging between 70 and 80; “D” means % ranging between 60 and 70; “E” means % ranging between 45 and 60, “F” means %<45.

First: Cc1cc(NC(=O)[C@@H]2CN(C(=O)c3ccc(-c4c(C)n[nH]c4C)[nH]3)C[C@H]2C)ccc1F [Example 169, (3S,4S)-1-(5-(3,5-dimethyl-1H-pyrazol-4-yl)-1H-pyrrole-2-carbonyl)-N-(4-fluoro-3-methylphenyl)-4-methylpyrrolidine-3-carboxamide]
Second: Cc1cc(NC(=O)[C@@H]2CN(C(=O)c3ccc(-c4c(C)ncnc4C)[nH]3)C[C@H]2C)ccc1F [Example 168, (3S,4S)-1-(5-(4,6-dimethylpyrimidin-5-yl)-1H-pyrrole-2-carbonyl)-N-(4-fluoro-3-methylphenyl)-4-methylpyrrolidine-3-carboxamide]
The activity at 1 µM of the first is lower: under 45% for the first, 45 to 60% for the second.

First: O=C(Nc1cc(F)c(F)c(F)c1)[C@H]1CCN(C(=O)c2nccs2)C1 [Example 28, (S)-1-(thiazole-2-carbonyl)-N-(3,4,5-trifluorophenyl)pyrrolidine-3-carboxamide]
Second: O=C(Nc1cc(F)c(F)c(F)c1)[C@H]1CCN(C(=O)c2sccc2Cl)C1 [Example 3, (S)-1-(3-chlorothiophene-2-carbonyl)-N-(3,4,5-trifluorophenyl)pyrrolidine-3-carboxamide]
The activity at 1 µM of the first is higher: over 90% for the first, 70 to 80% for the second.

Compared with `N#Cc1cc(NC(=O)[C@H]2CCN(C(=O)c3ccc(-c4cccnc4)[nH]3)C2)ccc1F` [Example 75, (S)—N-(3-cyano-4-fluorophenyl)-1-(5-(pyridin-3-yl)-1H-pyrrole-2-carbonyl)pyrrolidine-3-carboxamide], `O=C(Nc1cc(F)c(F)c(F)c1)[C@H]1CCN(C(=O)c2ccc(-c3cccnc3)[nH]2)C1` [Example 82] is lower in activity at 1 µM: 60 to 70% for the first, 45 to 60% for the second.

Compared with `Cc1cc(NC(=O)[C@H]2CCN(C(=O)c3cc4cccnc4[nH]3)C2)ccc1F` [Example 24, (S)—N-(4-fluoro-3-methylphenyl)-1-(1H-pyrrolo[2,3-b]pyridine-2-carbonyl)pyrrolidine-3-carboxamide], `O=C(Nc1ccc(F)c(Cl)c1)[C@H]1CCN(C(=O)c2ncc[nH]2)C1` [Example 32, (S)—N-(3-chloro-4-fluorophenyl)-1-(1H-imidazole-2-carbonyl)pyrrolidine-3-carboxamide] is higher in activity at 1 µM: 60 to 70% for the first, 80 to 90% for the second.

First: O=C(Nc1cc(F)c(F)c(F)c1)[C@H]1CCN(C(=O)c2cc3nccnc3[nH]2)C1 [Example 23, (S)-1-(5H-pyrrolo[2,3-b]pyrazine-6-carbonyl)-N-(3,4,5-trifluorophenyl)pyrrolidine-3-carboxamide]
Second: O=C(Nc1cc(F)c(F)c(F)c1)[C@H]1CCN(C(=O)c2[nH]c3ncccc3c2Cl)C1 [Example 59, (S)-1-(3-chloro-1H-pyrrolo[2,3-b]pyridine-2-carbonyl)-N-(3,4,5-trifluorophenyl)pyrrolidine-3-carboxamide]
The activity at 1 µM of the first is higher: 70 to 80% for the first, 45 to 60% for the second.

Compared with `O=C(Nc1cc(F)c(F)c(F)c1)[C@H]1CCN(C(=O)c2nc3ccccc3[nH]2)C1` [Example 25, (S)-1-(1H-benzo[d]imidazole-2-carbonyl)-N-(3,4,5-trifluorophenyl)pyrrolidine-3-carboxamide], `O=C(Nc1cc(F)c(F)c(F)c1)[C@H]1CCN(C(=O)c2ncc[nH]2)C1` [Example 27, (S)-1-(1H-imidazole-2-carbonyl)-N-(3,4,5-trifluorophenyl)pyrrolidine-3-carboxamide] is higher in activity at 1 µM: 60 to 70% for the first, over 90% for the second.

First: O=C(Nc1cc(F)c(F)c(F)c1)[C@H]1CCN(C(=O)c2ccc(-c3ccncc3F)[nH]2)C1 [Example 95, (S)-1-(5-(3-fluoropyridin-4-yl)-1H-pyrrole-2-carbonyl)-N-(3,4,5-trifluorophenyl) pyrrolidine-3-carboxamide]
Second: N#Cc1ncccc1-c1ccc(C(=O)N2CC[C@H](C(=O)Nc3cc(F)c(F)c(F)c3)C2)[nH]1 [Example 97, (S)-1-(5-(2-cyanopyridin-3-yl)-1H-pyrrole-2-carbonyl)-N-(3,4,5-trifluorophenyl) pyrrolidine-3-carboxamide]
The activity at 1 µM of the first is higher: 45 to 60% for the first, under 45% for the second.

First: Cc1ccc(C(=O)N2CC[C@H](C(=O)Nc3ccc(F)c(C#N)c3)[C@@H]2C)[nH]1 [Example 66, (2S,3S)—N-(3-cyano-4-fluorophenyl)-2-methyl-1-(5-methyl-1H-pyrrole-2-carbonyl)pyrrolidine-3-carboxamide]
Second: C[C@H]1[C@@H](C(=O)Nc2cc(F)c(F)c(F)c2)CCN1C(=O)c1ccc(-c2cnccn2)[nH]1 [Example 84, (2S,3S)-2-methyl-1-(5-(pyrazin-2-yl)-1H-pyrrole-2-carbonyl)-N-(3,4,5-trifluorophenyl) pyrrolidine-3-carboxamide]
The activity at 1 µM of the first is lower: 45 to 60% for the first, over 90% for the second.

Compared with `Cc1ncnc(C)c1-c1ccc2c(Cl)c(C(=O)N3CC[C@H](C(=O)NCc4cnc(Cl)s4)C3)[nH]c2c1` [Example 136, (S)-1-(3-chloro-6-(4,6-dimethylpyrimidin-5-yl)-1H-indole-2-carbonyl)-N-((2-chlorothiazol-5-yl)methyl)pyrrolidine-3-carboxamide], `COc1ncnc(C)c1-c1ccc(C(=O)N2CC[C@H](C(=O)Nc3ccc(F)c(Cl)c3)C2)[nH]1` [Example 106, (S)—N-(3-chloro-4-fluorophenyl)-1-(5-(4-methoxy-6-methylpyrimidin-5-yl)-1H-pyrrole-2-carbonyl)pyrrolidine-3-carboxamide] is lower in activity at 1 µM: over 90% for the first, under 45% for the second.

Compared with `C[C@H]1[C@@H](C(=O)Nc2cc(F)c(F)c(F)c2)CCN1C(=O)c1cc2ncccc2[nH]1` [Example 64, (2S,3S)-2-methyl-1-(1H-pyrrolo[3,2-b]pyridine-2-carbonyl)-N-(3,4,5-trifluorophenyl) pyrrolidine-3-carboxamide], `Cc1ccc2[nH]c(C(=O)N3CC[C@H](C(=O)Nc4cc(F)c(F)c(F)c4)C3)cc2c1` [Example 55, (S)-1-(5-methyl-1H-indole-2-carbonyl)-N-(3,4,5-trifluorphenyl)pyrrolidine-3-carboxamide] is higher in activity at 1 µM: 70 to 80% for the first, over 90% for the second.

Compared with `Cc1n[nH]c(C)c1-c1ccc2cc(C(=O)N3CC[C@H](C(=O)Nc4cc(F)c(F)c(F)c4)C3)[nH]c2c1` [Example 134, (S)-1-(6-(3,5-dimethyl-1H-pyrazol-4-yl)-1H-indole-2-carbonyl)-N-(3,4,5-trifluorophenyl)pyrrolidine-3-carboxamide], `O=C(Nc1cc(F)c(F)c(F)c1)[C@H]1CCN(C(=O)c2cc3cc(F)ccc3[nH]2)C1` [Example 57, (S)-1-(5-fluoro-1H-indole-2-carbonyl)-N-(3,4,5-trifluorophenyl)pyrrolidine-3-carboxamide] is higher in activity at 1 µM: under 45% for the first, over 90% for the second.

First: O=C(Nc1cc(F)c(F)c(F)c1)[C@H]1CCN(C(=O)c2ccc[nH]2)C1 [Example 48, (S)-1-(1H-pyrrole-2-carbonyl)-N-(3,4,5-trifluorophenyl)pyrrolidine-3-carboxamide]
Second: Cc1cc[nH]c(=O)c1-c1ccc(C(=O)N2CC[C@H](C(=O)Nc3cc(F)c(F)c(F)c3)C2)[nH]1 [Example 118, (S)-1-(5-(4-methyl-2-oxo-1,2-dihydropyridin-3-yl)-1H-pyrrole-2-carbonyl)-N-(3,4,5-trifluorophenyl)pyrrolidine-3-carboxamide]
The activity at 1 µM of the first is higher: 80 to 90% for the first, 60 to 70% for the second.

Compared with `O=C(Nc1cc(F)c(F)c(F)c1)[C@H]1CCN(C(=O)c2ccc(-c3cncnc3)[nH]2)C1` [Example 79, (S)-1-(5-(pyrimidin-5-yl)-1H-pyrrole-2-carbonyl)-N-(3,4,5-trifluorophenyl)pyrrolidine-3-carboxamide], `O=C(Nc1cc(F)c(F)c(F)c1)[C@H]1CCN(C(=O)c2ccc(-c3cn[nH]c(=O)c3)[nH]2)C1` [Example 121, (S)-1-(5-(6-oxo-1,6-dihydropyridazin-4-yl)-1H-pyrrole-2-carbonyl)-N-(3,4,5-trifluorophenyl)pyrrolidine-3-carboxamide] is higher in activity at 1 µM: under 45% for the first, 80 to 90% for the second.

First: N#Cc1cc(NC(=O)[C@H]2CCN(C(=O)c3[nH]c4ccccc4c3Cl)C2)ccc1F [Example 43, (S)-1-(3-chloro-1H-indole-2-carbonyl)-N-(3-cyano-4-fluorophenyl)pyrrolidine-3-carboxamide]
Second: N#Cc1c(C(=O)N2CC[C@H](C(=O)Nc3cc(F)c(F)c(F)c3)C2)[nH]c2ncccc12 [Example 63, (S)-1-(3-cyano-1H-pyrrolo[2,3-b]pyridine-2-carbonyl)-N-(3,4,5-trifluorophenyl)pyrrolidine-3-carboxamide]
The activity at 1 µM of the first is lower: 45 to 60% for the first, 70 to 80% for the second.

Compared with `Cc1c(-c2ccc(C(=O)N3CC[C@H](C(=O)Nc4cc(F)c(F)c(F)c4)C3)[nH]2)c2cccnc2n1C` [Example 153, (S)-1-(5-(1,2-dimethyl-1H-pyrrolo[2,3-b]pyridin-3-yl)-1H-pyrrole-2-carbonyl)-N-(3,4,5-trifluorophenyl)pyrrolidine-3-carboxamide], `Cc1nn(C)cc1Cc1ccc(C(=O)N2CC[C@H](C(=O)Nc3cc(F)c(F)c(F)c3)C2)[nH]1` [Example 146, (S)-1-(5-((1,3-dimethyl-1H-pyrazol-4-yl)methyl)-1H-pyrrole-2-carbonyl)-N-(3,4,5-trifluorophenyl)pyrrolidine-3-carboxamide] is higher in activity at 1 µM: under 45% for the first, 70 to 80% for the second.

In the case of `O=C(Nc1cc(F)c(F)c(F)c1)[C@H]1CCN(C(=O)c2ccc3c(CNCCO)c[nH]c3c2)C1` [Example 37, (S)-1-(3-(((2-hydroxyethyl)amino)methyl)-1H-indole-6-carbonyl)-N-(3,4,5-trifluorophenyl) pyrrolidine-3-carboxamide], the activity at 1 µM is reported as over 90%.
